Data: ChEMBL document CHEMBL1128607, “Structure-based design of novel HIV protease inhibitors: carboxamide-containing 4-hydroxycoumarins and 4-hydroxy-2-pyrones as potent nonpeptidic inhibitors” (J Med Chem, 1995)

Each compound was assayed against Human immunodeficiency virus type 1 protease (Human immunodeficiency virus 1, UniProt Q72874) (assay: Ability to inhibit HIV protease purified and refolded from Escherichia coli inclusion bodies).
With CCC(c1cccc(NC(=O)[C@H](C)NC(=O)OC(C)(C)C)c1)c1c(O)c2ccccc2oc1=O (stereo partly drawn) the Ki was 170 nM.
For CCC(c1cccc(NC(=O)CCCNC(=O)OC(C)(C)C)c1)c1c(O)c2ccccc2oc1=O (stereo not drawn), the Ki was 1600 nM.
Work on CCC(c1cccc(NC(=O)CCn2ccc3ccccc32)c1)c1c(O)c2ccccc2oc1=O (stereo not drawn) yielded a Ki of 110 nM.
CCC(Cc1ccccc1)c1cc(O)c(C(c2cccc(NC(=O)Cc3ccncc3)c2)C2CC2)c(=O)o1 (stereo not drawn) gave a Ki of 44 nM.
With COc1ccc2c(O)c(C(c3ccccc3)C3CC3)c(=O)oc2c1 (stereo not drawn) the Ki was 170 nM.
With CCC(Cc1ccccc1)c1cc(O)c(C(c2cccc(NC(=O)[C@H](Cc3c[nH]cn3)NC(=O)OC(C)(C)C)c2)C2CC2)c(=O)o1 (stereo partly drawn) the Ki was 4 nM.
COc1ccc2c(O)c(C(c3cccc(NC(=O)CCNC(=O)OC(C)(C)C)c3)C3CC3)c(=O)oc2c1 (stereo not drawn) was tested, and the Ki was 28 nM.
CCC(c1cccc(NC(=O)CCNC(=O)OC(C)(C)C)c1)c1c(O)c2ccccc2oc1=O (stereo not drawn) showed a Ki of 280 nM.
O=c1oc2ccccc2c(O)c1C(c1ccccc1)C1CC1 (stereo not drawn) gave a Ki of 350 nM.
CCC(c1ccccc1)c1c(O)c2ccc(OC)cc2oc1=O (stereo not drawn) was tested, and the Ki was 560 nM.
Compound CC(C)(C)OC(=O)NCCC(=O)Nc1cccc(C(c2c(O)oc3ccccc3c2=O)C2CC2)c1 (stereo not drawn) has a Ki of 86 nM.
In the case of CCC(Cc1ccccc1)c1cc(O)c(C(c2cccc(NC(=O)[C@H](C)NC(=O)OC(C)(C)C)c2)C2CC2)c(=O)o1 (stereo partly drawn), the Ki is reported as 15 nM.
For CCC(c1cccc(C(=O)N[C@H](C(=O)NCc2ccccn2)C(C)CC)c1)c1c(O)oc2ccccc2c1=O (stereo partly drawn), the Ki was 400 nM.
CCC(c1cccc(NC(=O)CCNC(=O)OC(C)(C)C)c1)c1c(O)oc2cc(OC)ccc2c1=O (stereo not drawn) gave a Ki of 170 nM.
CCC(Cc1ccccc1)c1cc(O)c(C(c2cccc(NC(=O)[C@H](Cc3cn(S(=O)(=O)c4ccc(C)cc4)cn3)NC(=O)OC(C)(C)C)c2)C2CC2)c(=O)o1 (stereo partly drawn) was tested, and the Ki was 19 nM.
CCC(c1cccc(NC(=O)[C@@H]2CCCN2C(=O)OC(C)(C)C)c1)c1c(O)c2ccccc2oc1=O (stereo partly drawn) showed a Ki of 3600 nM.
With CCC(c1cccc(C(=O)NCc2nc3ccccc3[nH]2)c1)c1c(O)oc2ccccc2c1=O (stereo not drawn) the Ki was 4400 nM.
In the case of CCC(c1cccc(NC(=O)CNC(=O)OC(C)(C)C)c1)c1c(O)c2ccccc2oc1=O (stereo not drawn), the Ki is reported as 160 nM.
